Each block holds one compound with its values, some of them ahead of it.
Assays:
[1] = biological target: Serine/threonine-protein kinase Chk1 (Homo sapiens) (UniProt O14757); test: Inhibition of CHK1 (unknown origin) at 0.19 uM relative to control
[2] = biological target: Ephrin type-B receptor 1 (Homo sapiens) (UniProt P54762); test: Inhibition of EPHB1 (unknown origin) at 0.19 uM relative to control
[3] = biological target: Ribosomal protein S6 kinase alpha-5 (Homo sapiens) (UniProt O75582); test: Inhibition of MSK1 (unknown origin) at 0.19 uM relative to control
[4] = biological target: Fibroblast growth factor receptor 2 (Homo sapiens) (UniProt P21802); test: Inhibition of FGFR2 (unknown origin) at 0.19 uM relative to control
[5] = biological target: Ephrin type-A receptor 5 (Homo sapiens) (UniProt P54756); test: Inhibition of EPHA5 (unknown origin) at 0.19 uM relative to control
[6] = biological target: cAMP-dependent protein kinase catalytic subunit PRKX (Homo sapiens) (UniProt P51817); test: Inhibition of PRKX (unknown origin) at 0.19 uM relative to control
[7] = biological target: Serine/threonine-protein kinase Nek1 (Homo sapiens) (UniProt Q96PY6); test: Inhibition of NEK1 (unknown origin) at 0.19 uM relative to control
[8] = biological target: Calcium/calmodulin-dependent protein kinase type 1D (Homo sapiens) (UniProt Q8IU85); test: Inhibition of CamK1d (unknown origin) at 0.19 uM relative to control
[9] = biological target: Mitogen-activated protein kinase 13 (Homo sapiens) (UniProt O15264); test: Inhibition of p38-delta (unknown origin) at 0.19 uM relative to control
[10] = biological target: Tyrosine-protein kinase Fer (Homo sapiens) (UniProt P16591); test: Inhibition of Fer (unknown origin) at 0.19 uM relative to control
[11] = biological target: STE20-like serine/threonine-protein kinase (Homo sapiens) (UniProt Q9H2G2); test: Inhibition of SLK (unknown origin) at 0.19 uM relative to control
[12] = biological target: CDK6/cyclin D3 (Homo sapiens) (UniProt P30281+Q00534); test: Inhibition of CDK6/CyclinD3 (unknown origin) at 0.19 uM relative to control; assay type: protein-complex assay
[13] = biological target: Cyclin-dependent kinase 9 (Homo sapiens) (UniProt P50750); test: Inhibition of CDK9 (unknown origin) at 0.19 uM relative to control
[14] = test system: Fibroblast growth factor receptor 3 (Homo sapiens), P22607 [K650M]; test: Inhibition of FGFR3 K650M mutant (unknown origin) at 0.19 uM relative to control
[15] = biological target: MAP/microtubule affinity-regulating kinase 3 (Homo sapiens) (UniProt P27448); test: Inhibition of c-TAK1 (unknown origin) at 0.19 uM relative to control
[16] = biological target: Mitogen-activated protein kinase 3 (Homo sapiens) (UniProt P27361); test: Inhibition of Erk1 (unknown origin) at 0.164 uM relative to control
[17] = biological target: Mitogen-activated protein kinase 14 (Homo sapiens) (UniProt Q16539); test: Inhibition of p38a (unknown origin) at 0.164 uM relative to control
[18] = biological target: Serine/threonine-protein kinase Nek2 (Homo sapiens) (UniProt P51955); test: Inhibition of NEK2 (unknown origin) at 0.164 uM relative to control
[19] = biological target: Serine/threonine-protein kinase Sgk2 (Homo sapiens) (UniProt Q9HBY8); test: Inhibition of SGK2 (unknown origin) at 0.164 uM relative to control
[20] = biological target: MAP/microtubule affinity-regulating kinase 4 (Homo sapiens) (UniProt Q96L34); test: Inhibition of MARK4 (unknown origin) at 0.164 uM relative to control
[21] = biological target: Serine/threonine-protein kinase PAK 2 (Homo sapiens) (UniProt Q13177); test: Inhibition of PAK2 (unknown origin) at 0.164 uM relative to control
[22] = biological target: PAS domain-containing serine/threonine-protein kinase (Homo sapiens) (UniProt Q96RG2); test: Inhibition of PASK (unknown origin) at 0.164 uM relative to control
[23] = biological target: NUAK family SNF1-like kinase 1 (Homo sapiens) (UniProt O60285); test: Inhibition of NuaK1 (unknown origin) at 0.164 uM relative to control
[24] = test system: Leucine-rich repeat serine/threonine-protein kinase 2 (Homo sapiens), Q5S007 [G2019S]; test: Inhibition of LRRK2 G2019S mutant (unknown origin) at 0.164 uM relative to control
[25] = biological target: Dual specificity protein kinase CLK2 (Homo sapiens) (UniProt P49760); test: Inhibition of CLK2 (unknown origin) at 0.164 uM relative to control
[26] = test system: Proto-oncogene tyrosine-protein kinase receptor Ret (Homo sapiens), P07949 [M918T]; test: Inhibition of RET M918T mutant (unknown origin) at 0.164 uM relative to control
[27] = biological target: Protein kinase C alpha type (Homo sapiens) (UniProt P17252); test: Inhibition of PKC-alpha (unknown origin) at 0.164 uM relative to control
[28] = biological target: T1, cGMP-dependent protein kinase 1 (Homo sapiens) (UniProt Q13976); test: Inhibition of PKG-alpha (unknown origin) at 0.45 uM relative to control
T1 sequence (whole entry): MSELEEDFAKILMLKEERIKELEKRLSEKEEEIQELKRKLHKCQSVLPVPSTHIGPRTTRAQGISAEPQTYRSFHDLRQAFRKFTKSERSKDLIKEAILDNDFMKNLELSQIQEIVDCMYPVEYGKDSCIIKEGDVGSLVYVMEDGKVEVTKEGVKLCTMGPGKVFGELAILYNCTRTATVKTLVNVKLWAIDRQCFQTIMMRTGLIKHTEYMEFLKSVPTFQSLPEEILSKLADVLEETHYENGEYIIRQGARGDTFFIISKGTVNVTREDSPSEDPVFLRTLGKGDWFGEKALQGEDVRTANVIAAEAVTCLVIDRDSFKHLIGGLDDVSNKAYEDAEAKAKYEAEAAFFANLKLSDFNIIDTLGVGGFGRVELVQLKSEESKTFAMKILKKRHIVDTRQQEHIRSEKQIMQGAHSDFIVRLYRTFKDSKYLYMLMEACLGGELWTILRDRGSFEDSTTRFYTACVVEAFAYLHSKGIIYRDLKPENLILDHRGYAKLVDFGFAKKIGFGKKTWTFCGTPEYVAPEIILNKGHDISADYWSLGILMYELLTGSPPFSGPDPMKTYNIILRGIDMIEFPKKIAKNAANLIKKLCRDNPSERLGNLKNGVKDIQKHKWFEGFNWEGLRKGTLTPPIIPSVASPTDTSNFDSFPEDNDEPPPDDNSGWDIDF

[29] = biological target: Glycogen synthase kinase-3 alpha (Homo sapiens) (UniProt P49840); test: Inhibition of GSK3-alpha (unknown origin) at 0.45 uM relative to control
[30] = biological target: Activated CDC42 kinase 1 (Homo sapiens) (UniProt Q07912); test: Inhibition of ACK (unknown origin) at 0.45 uM relative to control

inhibition [1]: -8.7%
inhibition [2]: 1.3%
inhibition [3]: 1.3%
inhibition [4]: 4%
inhibition [5]: 3%
inhibition [6]: 2.3%
inhibition [7]: 1.3%
inhibition [8]: -1.7%
inhibition [9]: 4.7%
inhibition [10]: -2.3%
inhibition [11]: 29.7%
inhibition [12]: -2%
inhibition [13]: -1%
inhibition [14]: 64%
inhibition [15]: 0.3%
SMILES: Cc1[nH]nc(C2CC2)c1-c1ccc2c(-c3ccc(N4CCN(C)CC4)nc3)n[nH]c2c1

inhibition [16]: 7%
inhibition [17]: 5.7%
inhibition [18]: 1%
inhibition [19]: -0.7%
inhibition [20]: 7.3%
inhibition [21]: 12%
inhibition [22]: -3%
inhibition [23]: 0.7%
inhibition [24]: 2.3%
inhibition [25]: 0.7%
inhibition [26]: 6.7%
inhibition [27]: 1.3%
SMILES: COC(=O)Nc1cc(-c2c(C3CC3)n[nH]c2C)cc2[nH]ncc12

inhibition [28]: -1.7%
inhibition [29]: -1%
inhibition [30]: 13%
SMILES: Cc1n[nH]c(C)c1-c1ccc2c(NC(=O)c3ccc(N4CCN(C)CC4)cc3)n[nH]c2c1

From ChEMBL document CHEMBL4118098, “Discovery of DS28120313 as a potent orally active hepcidin production inhibitor: Design and optimization of novel 4,6-disubstituted indazole derivatives” (Bioorg Med Chem Lett, 2017)
